The nature of the data set: Au(I)-mediated imine macrocyclisation: N-terminal amine adds (Markovnikov) to N-propargyl backbone amide alkyne; JohnPhosAu(MeCN)SbF6 2 equiv, Et4NBr 16 equiv; in situ NaBH4 10 equiv reduction 15 min for quantification. Conditions: DMF, 8.0 mM, 37.0 °C.

For the compound `CC(C)C[C@@H]1NC(=O)CNC(C)CN(CC(N)=O)C(=O)CNC(=O)CNC(=O)CNC(=O)[C@H](C)NC(=O)[C@H](CCCNC(=N)N)NC(=O)[C@H](Cc2ccc(O)cc2)NC(=O)[C@H](CC(C)C)NC(=O)[C@H](Cc2ccccc2)NC(=O)CNC(=O)CNC(=O)[C@H](C)NC(=O)[C@H](CCCNC(=N)N)NC(=O)[C@H](Cc2ccc(O)cc2)NC(=O)[C@H](CC(C)C)NC1=O` (some centres unmarked), the ring closure, conversion by HPLC (from C#CCN(CC(N)=O)C(=O)CNC(=O)CNC(=O)CNC(=O)[C@H](C)NC(=O)[C@H](CCCNC(=N)N)NC(=O)[C@H](Cc1ccc(O)cc1)NC(=O)[C@H](CC(C)C)NC(=O)[C@H](Cc1ccccc1)NC(=O)CNC(=O)CNC(=O)[C@H](C)NC(=O)[C@H](CCCNC(=N)N)NC(=O)[C@H](Cc1ccc(O)cc1)NC(=O)[C@H](CC(C)C)NC(=O)[C@H](CC(C)C)NC(=O)CN, 51-membered ring, 1.0 h) is 94%.

As for `CC(C)C[C@@H]1NC(=O)CNC(C)CN(CC(N)=O)C(=O)CNC(=O)CNC(=O)CNC(=O)[C@H](C)NC(=O)[C@H](CCCNC(=N)N)NC(=O)[C@H](Cc2ccc(O)cc2)NC(=O)[C@H](CC(C)C)NC(=O)[C@H](Cc2ccccc2)NC(=O)[C@H](C)NC(=O)[C@H](CCCNC(=N)N)NC(=O)[C@H](Cc2ccc(O)cc2)NC1=O` (some centres unmarked), the ring closure, conversion by HPLC (from C#CCN(CC(N)=O)C(=O)CNC(=O)CNC(=O)CNC(=O)[C@H](C)NC(=O)[C@H](CCCNC(=N)N)NC(=O)[C@H](Cc1ccc(O)cc1)NC(=O)[C@H](CC(C)C)NC(=O)[C@H](Cc1ccccc1)NC(=O)[C@H](C)NC(=O)[C@H](CCCNC(=N)N)NC(=O)[C@H](Cc1ccc(O)cc1)NC(=O)[C@H](CC(C)C)NC(=O)CN, 42-membered ring, 1.0 h) is 90%.

With `CC(C)C[C@@H]1NC(=O)CNC(=O)[C@H](CCCNC(=N)N)NC(C)CN(CC(N)=O)C(=O)CNC(=O)[C@H](C)NC(=O)[C@H](CCCNC(=N)N)NC(=O)[C@H](Cc2ccc(O)cc2)NC1=O` (stereo partly drawn) [H-Arg-Gly-Leu-Tyr-Arg-Ala-Gly-(N-propargyl)Gly-NH2], the ring closure, conversion by HPLC (from C#CCN(CC(N)=O)C(=O)CNC(=O)[C@H](C)NC(=O)[C@H](CCCNC(=N)N)NC(=O)[C@H](Cc1ccc(O)cc1)NC(=O)[C@H](CC(C)C)NC(=O)CNC(=O)[C@@H](N)CCCNC(=N)N, 24-membered ring, 1.0 h) is 83%.

As to `CC(C)C[C@@H]1NC(=O)CNC(=O)[C@H](CC(N)=O)NC(C)CN(CC(N)=O)C(=O)CNC(=O)[C@H](C)NC(=O)[C@H](CCCNC(=N)N)NC(=O)[C@H](Cc2ccc(O)cc2)NC1=O` (stereo partly drawn) [H-Asn-Gly-Leu-Tyr-Arg-Ala-Gly-(N-propargyl)Gly-NH2], under “from C#CCN(CC(N)=O)C(=O)CNC(=O)[C@H](C)NC(=O)[C@H](CCCNC(=N)N)NC(=O)[C@H](Cc1ccc(O)cc1)NC(=O)[C@H](CC(C)C)NC(=O)CNC(=O)[C@@H](N)CC(N)=O, 24-membered ring, 1.0 h”, the ring closure, conversion by HPLC came to 76%.

As for `CC(C)C[C@@H]1NC(=O)CNC(=O)[C@H](CC(=O)O)NC(C)CN(CC(N)=O)C(=O)CNC(=O)[C@H](C)NC(=O)[C@H](CCCNC(=N)N)NC(=O)[C@H](Cc2ccc(O)cc2)NC1=O` (stereo partly drawn) [H-Asp-Gly-Leu-Tyr-Arg-Ala-Gly-(N-propargyl)Gly-NH2], the ring closure, conversion by HPLC (from C#CCN(CC(N)=O)C(=O)CNC(=O)[C@H](C)NC(=O)[C@H](CCCNC(=N)N)NC(=O)[C@H](Cc1ccc(O)cc1)NC(=O)[C@H](CC(C)C)NC(=O)CNC(=O)[C@@H](N)CC(=O)O, 24-membered ring, 1.0 h) is 76%.

Take `CC(C)C[C@@H]1NC(=O)CNC(=O)[C@H](CS)NC(C)CN(CC(N)=O)C(=O)CNC(=O)[C@H](C)NC(=O)[C@H](CCCNC(=N)N)NC(=O)[C@H](Cc2ccc(O)cc2)NC1=O` (stereo partly drawn) [H-Cys-Gly-Leu-Tyr-Arg-Ala-Gly-(N-propargyl)Gly-NH2]: the ring closure, conversion by HPLC (from C#CCN(CC(N)=O)C(=O)CNC(=O)[C@H](C)NC(=O)[C@H](CCCNC(=N)N)NC(=O)[C@H](Cc1ccc(O)cc1)NC(=O)[C@H](CC(C)C)NC(=O)CNC(=O)[C@@H](N)CS, 24-membered ring, 1.0 h) was 76%.

As to `CC(C)C[C@@H]1NC(=O)CNC(=O)[C@H](CCC(=O)O)NC(C)CN(CC(N)=O)C(=O)CNC(=O)[C@H](C)NC(=O)[C@H](CCCNC(=N)N)NC(=O)[C@H](Cc2ccc(O)cc2)NC1=O` (stereo partly drawn) [H-Glu-Gly-Leu-Tyr-Arg-Ala-Gly-(N-propargyl)Gly-NH2], the ring closure, conversion by HPLC (from C#CCN(CC(N)=O)C(=O)CNC(=O)[C@H](C)NC(=O)[C@H](CCCNC(=N)N)NC(=O)[C@H](Cc1ccc(O)cc1)NC(=O)[C@H](CC(C)C)NC(=O)CNC(=O)[C@@H](N)CCC(=O)O, 24-membered ring, 1.0 h) is 89%.

Regarding `CC(C)C[C@@H]1NC(=O)CNC(=O)CNC(=O)CNC(C)CN(CC(N)=O)C(=O)CNC(=O)[C@H](C)NC(=O)[C@H](CCCNC(=N)N)NC(=O)[C@H](Cc2ccc(O)cc2)NC1=O` (stereo partly drawn) [H-Gly-Gly-Gly-Leu-Tyr-Arg-Ala-Gly-(N-propargyl)Gly-NH2], the ring closure, conversion by HPLC (from C#CCN(CC(N)=O)C(=O)CNC(=O)[C@H](C)NC(=O)[C@H](CCCNC(=N)N)NC(=O)[C@H](Cc1ccc(O)cc1)NC(=O)[C@H](CC(C)C)NC(=O)CNC(=O)CNC(=O)CN, 27-membered ring, 0.5 h) was found to be 91%.

On to `CC(C)C[C@@H]1NC(=O)CNC(C)CN(CC(N)=O)C(=O)CNC(=O)[C@H](C)NC(=O)[C@H](Cc2ccc(O)cc2)NC1=O` (stereo partly drawn) [H-Gly-Leu-Tyr-Ala-Gly-(N-propargyl)Gly-NH2], for which the ring closure, conversion by HPLC (from C#CCN(CC(N)=O)C(=O)CNC(=O)[C@H](C)NC(=O)[C@H](Cc1ccc(O)cc1)NC(=O)[C@H](CC(C)C)NC(=O)CN, 18-membered ring, 0.5 h) was determined as 79%.

As for `CC(C)C[C@@H]1NC(=O)CNC(C)CN(CC(N)=O)C(=O)CNC(=O)[C@H](C)NC(=O)[C@H](CCCNC(=N)N)NC(=O)[C@H](Cc2ccc(O)cc2)NC1=O` (stereo partly drawn) [H-Gly-Leu-Tyr-Arg-Ala-Gly-(N-propargyl)Gly-NH2], the ring closure, conversion by HPLC (from C#CCN(CC(N)=O)C(=O)CNC(=O)[C@H](C)NC(=O)[C@H](CCCNC(=N)N)NC(=O)[C@H](Cc1ccc(O)cc1)NC(=O)[C@H](CC(C)C)NC(=O)CN, 21-membered ring, 0.5 h) amounted to 78%.

Take `CC(=O)NCSC[C@@H]1NC(=O)[C@H](Cc2ccc(O)cc2)NC(=O)[C@H](CC(C)C)NC(=O)CNC(C)CN(CC(N)=O)C(=O)CNC(=O)[C@H](C)NC1=O` (stereo partly drawn) [H-Gly-Leu-Tyr-Cys(Acm)-Ala-Gly-(N-propargyl)Gly-NH2]: the ring closure, conversion by HPLC (from C#CCN(CC(N)=O)C(=O)CNC(=O)[C@H](C)NC(=O)[C@H](CSCNC(C)=O)NC(=O)[C@H](Cc1ccc(O)cc1)NC(=O)[C@H](CC(C)C)NC(=O)CN, 21-membered ring, 0.5 h) was 82%.

For the compound `CC(C)C[C@@H]1NC(=O)CNC(C)CN(CC(N)=O)C(=O)CNC(=O)[C@H](C)NC(=O)[C@H](CS)NC(=O)[C@H](Cc2ccc(O)cc2)NC1=O` (stereo partly drawn) [H-Gly-Leu-Tyr-Cys-Ala-Gly-(N-propargyl)Gly-NH2], the ring closure, conversion by HPLC (from C#CCN(CC(N)=O)C(=O)CNC(=O)[C@H](C)NC(=O)[C@H](CS)NC(=O)[C@H](Cc1ccc(O)cc1)NC(=O)[C@H](CC(C)C)NC(=O)CN, 21-membered ring, 0.5 h) is 75%.

As for `CC(C)C[C@@H]1NC(=O)CNC(=O)[C@H](Cc2c[nH]cn2)NC(C)CN(CC(N)=O)C(=O)CNC(=O)[C@H](C)NC(=O)[C@H](CCCNC(=N)N)NC(=O)[C@H](Cc2ccc(O)cc2)NC1=O` (stereo partly drawn) [H-His-Gly-Leu-Tyr-Arg-Ala-Gly-(N-propargyl)Gly-NH2], under “from C#CCN(CC(N)=O)C(=O)CNC(=O)[C@H](C)NC(=O)[C@H](CCCNC(=N)N)NC(=O)[C@H](Cc1ccc(O)cc1)NC(=O)[C@H](CC(C)C)NC(=O)CNC(=O)[C@@H](N)Cc1c[nH]cn1, 24-membered ring, 1.0 h”, the ring closure, conversion by HPLC was 90%.

For `CC[C@H](C)[C@@H]1NC(C)CN(CC(N)=O)C(=O)CNC(=O)[C@H](C)NC(=O)[C@H](CCCNC(=N)N)NC(=O)[C@H](Cc2ccc(O)cc2)NC(=O)[C@H](CC(C)C)NC(=O)CNC1=O` (stereo partly drawn) [H-Ile-Gly-Leu-Tyr-Arg-Ala-Gly-(N-propargyl)Gly-NH2], the ring closure, conversion by HPLC (from C#CCN(CC(N)=O)C(=O)CNC(=O)[C@H](C)NC(=O)[C@H](CCCNC(=N)N)NC(=O)[C@H](Cc1ccc(O)cc1)NC(=O)[C@H](CC(C)C)NC(=O)CNC(=O)[C@@H](N)[C@@H](C)CC, 24-membered ring, 1.0 h) was determined as 76%.

In the case of `CC(C)C[C@@H]1NC(=O)CNC(=O)[C@H](Cc2ccccc2)NC(C)CN(CC(N)=O)C(=O)[C@H](C)NC(=O)[C@H](C)NC(=O)[C@H](CCCNC(=N)N)NC(=O)[C@H](Cc2ccc(O)cc2)NC1=O` (stereo partly drawn) [H-Phe-Gly-Leu-Tyr-Arg-Ala-Ala-(N-propargyl)Gly-NH2], for the setting “from C#CCN(CC(N)=O)C(=O)[C@H](C)NC(=O)[C@H](C)NC(=O)[C@H](CCCNC(=N)N)NC(=O)[C@H](Cc1ccc(O)cc1)NC(=O)[C@H](CC(C)C)NC(=O)CNC(=O)[C@@H](N)Cc1ccccc1, 24-membered ring, 1.0 h”, the ring closure, conversion by HPLC was 89%.

For `CC(C)C[C@@H]1NC(=O)CNC(=O)[C@H](Cc2ccccc2)NC(C)CN(CC(N)=O)C(=O)[C@H](CC(=O)O)NC(=O)[C@H](C)NC(=O)[C@H](CCCNC(=N)N)NC(=O)[C@H](Cc2ccc(O)cc2)NC1=O` (stereo partly drawn) [H-Phe-Gly-Leu-Tyr-Arg-Ala-Asp-(N-propargyl)Gly-NH2], the ring closure, conversion by HPLC (from C#CCN(CC(N)=O)C(=O)[C@H](CC(=O)O)NC(=O)[C@H](C)NC(=O)[C@H](CCCNC(=N)N)NC(=O)[C@H](Cc1ccc(O)cc1)NC(=O)[C@H](CC(C)C)NC(=O)CNC(=O)[C@@H](N)Cc1ccccc1, 24-membered ring, 1.0 h) stood at 80%.

Consider `CC(C)C[C@@H]1NC(=O)CNC(=O)[C@H](Cc2ccccc2)NC(C)CN([C@@H](C)C(N)=O)C(=O)CNC(=O)[C@H](C)NC(=O)[C@H](CCCNC(=N)N)NC(=O)[C@H](Cc2ccc(O)cc2)NC1=O` (stereo partly drawn) [H-Phe-Gly-Leu-Tyr-Arg-Ala-Gly-(N-propargyl)Ala-NH2], for which, for the setting “from C#CCN(C(=O)CNC(=O)[C@H](C)NC(=O)[C@H](CCCNC(=N)N)NC(=O)[C@H](Cc1ccc(O)cc1)NC(=O)[C@H](CC(C)C)NC(=O)CNC(=O)[C@@H](N)Cc1ccccc1)[C@@H](C)C(N)=O, 24-membered ring, 1.0 h”, the ring closure, conversion by HPLC came out at 90%.
